Assay results published in US20250230165A1, “HETEROCYCLIC COMPOUNDS FOR USE IN THE TREATMENT OF CANCER” (ARTIOS PHARMA LIMITED, priority 2021, published 2025).

Molecular target: T1, Human Polθ polymerase domain (aa1820-2590) (Homo sapiens, UniProt O75417)
T1 construct: Human Polθ polymerase domain (aa1820-2590) was expressed in E. coli; made in house; host or cells: E. coli
T1 sequence (O75417 1820-2590): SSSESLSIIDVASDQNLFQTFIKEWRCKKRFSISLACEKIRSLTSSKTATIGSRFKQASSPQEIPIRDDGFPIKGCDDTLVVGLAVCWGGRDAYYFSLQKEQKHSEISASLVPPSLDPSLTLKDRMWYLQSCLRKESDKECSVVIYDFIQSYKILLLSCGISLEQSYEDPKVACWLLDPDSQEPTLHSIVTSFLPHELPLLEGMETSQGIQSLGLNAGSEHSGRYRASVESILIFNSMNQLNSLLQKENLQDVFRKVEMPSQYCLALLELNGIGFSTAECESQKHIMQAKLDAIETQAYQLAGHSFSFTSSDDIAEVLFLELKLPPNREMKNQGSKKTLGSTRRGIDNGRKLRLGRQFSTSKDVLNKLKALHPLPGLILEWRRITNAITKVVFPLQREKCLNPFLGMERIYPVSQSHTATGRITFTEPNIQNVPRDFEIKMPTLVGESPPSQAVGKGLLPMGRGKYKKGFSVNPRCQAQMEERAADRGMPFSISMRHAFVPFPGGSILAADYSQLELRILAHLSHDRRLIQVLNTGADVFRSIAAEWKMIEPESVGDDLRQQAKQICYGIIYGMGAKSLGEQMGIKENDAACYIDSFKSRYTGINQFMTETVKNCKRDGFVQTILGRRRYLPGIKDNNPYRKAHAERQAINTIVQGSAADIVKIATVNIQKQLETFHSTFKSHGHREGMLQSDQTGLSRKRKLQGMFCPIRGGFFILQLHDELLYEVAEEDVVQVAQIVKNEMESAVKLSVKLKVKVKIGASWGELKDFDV
Assay: Polθ Polymerase Domain Kinact/KI Assay (PicoGreen)
Type: biochemical
Conditions: 0.8 nM Polθ, 100 nM DNA substrate, kobs vs [I] fit for 2-step covalent inhibitor
Summary of the method: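 PicoGreen fluorescence read-out of primer extension; progress curves per inhibitor concentration fitted for kobs, then kobs vs [I] fitted to a two-step covalent model to give Kinact and KI. Conditions: 0.8 nM enzyme, 100 nM DNA substrate, […].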

| SMILES | Kinact/Kl |
| --- | --- |
| C=CC(=O)N1CC2(CN(CCN3C[C@H]4CC(=O)N(c5cc(C(F)(F)F)cc(C)n5)[C@@H]4C(=O)N(C)c4cccc(C)c43)C[C@H]2C#N)C1 (racemic) [Example 118b, (S/R)-2-acryloyl-6-(2-((3aR,11aS)-6,10-dimethyl-1-(6-methyl-4-(trifluoromethyl)pyridin-2-yl)-2,11-dioxo-1,2,3,3a,4,10,11,11a-octahydro-5H-benzo[b]pyrrolo[2,3-f][1,4]diazocin-5-yl)ethyl)-2,6-diazaspiro[3.4]octane-8-carbonitrile] | 3.36e+06 M⁻¹ s⁻¹ |
| C=CC(=O)N1CC2(CN(CCN3C[C@H]4CC(=O)N(c5cc(C(F)(F)F)cc(C)n5)[C@@H]4C(=O)N(C)c4cccc(C)c43)C[C@@]2(C)C#N)C1 (racemic) [Example 119b, (S/R)-2-acryloyl-6-(2-((3aR,11aS)-6,10-dimethyl-1-(6-methyl-4-(trifluoromethyl)pyridin-2-yl)-2,11-dioxo-1,2,3,3a,4,10,11,11a-octahydro-5H-benzo[b]pyrrolo[2,3-f][1,4]diazocin-5-yl)ethyl)-8-methyl-2,6-diazaspiro[3.4]octane-8-carbonitrile] | 3.87e+06 M⁻¹ s⁻¹ |
| C=CC(=O)N1CCC[C@H]1c1ccc(CN2C[C@H]3CC(=O)N(c4cc(C(F)(F)F)cc(C)n4)[C@@H]3C(=O)N(C)c3cccc(F)c32)cc1 (racemic) [Example 141b, (3aR,11aS)-5-(4-((S/R)-1-acryloylpyrrolidin-2-yl)benzyl)-6-fluoro-10-methyl-1-(6-methyl-4-(trifluoromethyl)pyridin-2-yl)-1,3a,4,5,10,11a-hexahydro-2H-benzo[b]pyrrolo[2,3-f][1,4]diazocine-2,11(3H)-dione] | 100000 M⁻¹ s⁻¹ |
| C=CC(=O)N1CCn2cc(CN3C[C@H]4CC(=O)N(c5cc(C(F)(F)F)cc(C)n5)[C@@H]4C(=O)N(C)c4cccc(Cl)c43)nc2[C@@H]1C (racemic) [Example 142b] | 630000 M⁻¹ s⁻¹ |
| C=CC(=O)N1Cc2nc(CN3C[C@H]4CC(=O)N(c5cc(C(F)(F)F)cc(C)n5)[C@@H]4C(=O)N(C)c4cccc(Cl)c43)cn2C[C@H]1C (racemic) [Example 143b, (3aR,11aS)-5-(((S/R)-7-acryloyl-6-methyl-5,6,7,8-tetrahydroimidazo[1,2-a]pyrazin-2-yl)methyl)-6-chloro-10-methyl-1-(6-methyl-4-(trifluoromethyl)pyridin-2-yl)-1,3a,4,5,10,11a-hexahydro-2H-benzo[b]pyrrolo[2,3-f][1,4]diazocine-2,11(3H)-dione] | 2.32e+06 M⁻¹ s⁻¹ |
| C=CC(=O)N1Cc2nc(CN3C[C@H]4CC(=O)N(c5cc(C(F)(F)F)cc(C)n5)[C@@H]4C(=O)Nc4cccc(Cl)c43)cn2C[C@@H]1C (racemic) [Example 144b, (3aR,11aS)-5-(((S/R)-7-acryloyl-6-methyl-5,6,7,8-tetrahydroimidazo[1,2-a]pyrazin-2-yl)methyl)-6-chloro-1-(6-methyl-4-(trifluoromethyl)pyridin-2-yl)-1,3a,4,5,10,11a-hexahydro-2H-benzo[b]pyrrolo[2,3-f][1,4]diazocine-2,11(3H)-dione] | 2e+06 M⁻¹ s⁻¹ |
| Cc1cc(C(F)(F)F)cc(N2C(=O)C[C@@H]3CN(Cc4ccc([C@H]5CCCN5C(=O)/C=C/CN(C)C)cc4)c4c(F)cccc4N(C)C(=O)[C@H]32)n1 (racemic) [Example 170a, (3aR,11aS)-5-(4-((R/S)-1-((E)-4-(dimethylamino)-but-2-enoyl)pyr-rolidin-2-yl)benz-yl)-6-fluoro-10-methyl-1-(6-methyl-4-(tri-fluoromethyl)-pyridin-2-yl)-1,3a,4,5,10,11a-hexahydro-2H-benzo[b]pyrrolo [2,3-f][1,4]diazo-cine-2,11(3H)-dione] | 880000 M⁻¹ s⁻¹ |
| Cc1cc(C(F)(F)F)cc(N2C(=O)C[C@@H]3CN(Cc4ccc([C@@H]5CCCN5C(=O)/C=C/CN(C)C)cc4)c4c(F)cccc4N(C)C(=O)[C@H]32)n1 (racemic) [Example 170b, (3aR,11aS)-5-(4-((S/R)-1-((E)-4-(dimethylamino)-but-2-enoyl)pyr-rolidin-2-yl)benz-yl)-6-fluoro-10-methyl-1-(6-methyl-4-(tri-fluoromethyl)-pyridin-2-yl)-1,3a,4,5,10,11a-hexahydro-2H-benzo[b]pyrrolo [2,3-f][1,4]diazo-cine-2,11(3H)-dione] | 410000 M⁻¹ s⁻¹ |
| C=C(CN(C)C)C(=O)N1CCC[C@@H]1c1ccc(CN2C[C@H]3CC(=O)N(c4cc(C(F)(F)F)cc(C)n4)[C@@H]3C(=O)N(C)c3cccc(F)c32)cc1 (racemic) [Example 171a, (3aR,11aS)-5-(4-((R/S)-1-(2-((di-methylamino)-methyl)acryloyl)-pyrrolidin-2-yl)-benzyl)-6-fluoro-10-methyl-1-(6-methyl-4-(tri-fluoromethyl)-pyridin-2-yl)-1,3a,4,5,10,11a-hexahydro-2H-benzo[b]pyrrolo [2,3-f][1,4]diazo-cine-2,11(3H)-dione] | 2.29e+06 M⁻¹ s⁻¹ |
| C=C(CN(C)C)C(=O)N1CCC[C@H]1c1ccc(CN2C[C@H]3CC(=O)N(c4cc(C(F)(F)F)cc(C)n4)[C@@H]3C(=O)N(C)c3cccc(F)c32)cc1 (racemic) [Example 171b, (3aR,11aS)-5-(4-((S/R)-1-(2-((di-methylamino)-methyl)acryloyl)-pyrrolidin-2-yl)-benzyl)-6-fluoro-10-methyl-1-(6-methyl-4-(tri-fluoromethyl)-pyridin-2-yl)-1,3a,4,5,10,11a-hexahydro-2H-benzo[b]pyrrolo [2,3-f][1,4]diazo-cine-2,11(3H)-dione] | 1.62e+06 M⁻¹ s⁻¹ |
| C#CC(=O)N1Cc2nc(CN3C[C@H]4CC(=O)N(c5cc(C(F)(F)F)cc(C)n5)[C@@H]4C(=O)N(C)c4cccc(Cl)c43)cn2C[C@@H]1C (racemic) [Example 172a, (3aR,11aS)-6-chloro-10-meth-yl-1-(6-methyl-4-(trifluorometh-yl)pyridin-2-yl)-5-(((S/R)-6-meth-yl-7-propioloyl-5,6,7,8-tetra-hydroimidazo [1,2-a]pyrazin-2-yl)methyl)-1,3a, 4,5,10,11a-hexa-hydro-2H-benzo [b]pyrrolo[2,3-f] [1,4]diazocine-2,11(3H)-dione] | 900000 M⁻¹ s⁻¹ |
| C#CC(=O)N1Cc2nc(CN3C[C@H]4CC(=O)N(c5cc(C(F)(F)F)cc(C)n5)[C@@H]4C(=O)N(C)c4cccc(Cl)c43)cn2C[C@H]1C (racemic) [Example 172b, (3aR,11aS)-6-chloro-10-meth-yl-1-(6-methyl-4-(trifluoro-methyl)pyridin-2-yl)-5-(((R/S)-6-methyl-7-propioloyl-5,6,7,8-tetra-hydroimidazo [1,2-a]pyrazin-2-yl)methyl)-1,3a,4,5,10,11a-hexahydro-2H-benzo[b]pyrrolo [2,3-f][1,4]diazo-cine-2,11(3H)-dione] | 280000 M⁻¹ s⁻¹ |
| C#CC(=O)N1Cc2nc(CN3C[C@H]4CC(=O)N(c5cc(C(F)(F)F)cc(C)n5)[C@@H]4C(=O)N(C)c4cccc(C)c43)cn2C[C@H]1C (racemic) [Example 199, (3aR,11aS)-6,10-dimethyl-1-(6-methyl-4-(tri-fluoromethyl)pyr-idin-2-yl)-5-(((R/S)-6-methyl-7-propioloyl-5,6,7,8-tetrahydro-imidazo[1,2-a]pyr-azin-2-yl)methyl)-1,3a,4,5,10,11a-hexahydro-2H-benzo[b]pyrrolo [2,3-f][1,4]diazo-cine-2,11(3H)-dione] | 1.38e+06 M⁻¹ s⁻¹ |
| C=CC(=O)N1Cc2nc(CN3C[C@H]4CC(=O)N(c5cc(C(F)(F)F)cc(C)n5)[C@@H]4C(=O)N(C)c4cccc(C)c43)cn2C[C@@H]1C (racemic) [Example 206b, (3aR,11aS)-5-(((S/R)-7-acryloyl-6-methyl-5,6,7,8-tetrahydroimidazo [1,2-a]pyrazin-2-yl)methyl)-6,10-dimethyl-1-(6-methyl-4-(trifluoromethyl)pyridin-2-yl)-1,3a,4,5,10,11a-hexahydro-2H-benzo[b]pyrrolo [2,3-f][1,4]diazocine-2,11(3H)-dione] | 4.19e+06 M⁻¹ s⁻¹ |
| C=CC(=O)N1CC(N2CCC[C@H](CN3C[C@H]4CC(=O)N(c5cc(C(F)(F)F)cc(C)n5)[C@@H]4C(=O)N(C)c4cccc(F)c43)C2)C1 (racemic) [Example 225b, (3aR,11aS)-5-(((S/R)-1-(1-acryloylazetidin-3-yl)piperidin-3-yl)methyl)-6-fluoro-10-methyl-1-(6-methyl-4-(trifluoromethyl)pyridin-2-yl)-1,3a,4,5,10,11a-hexahydro-2H-benzo[b] pyrrolo[2,3-f] [1,4]diazocine-2,11(3H)-dione] | 1.31e+06 M⁻¹ s⁻¹ |
